In patent publication US20240116985A1, “STAPLED PEPTIDES AND METHODS THEREOF” (priority 2020, published 2024):

Molecular target: T1, full-length beta-Catenin (Uniprot ID P35222) (Homo sapiens, UniProt P35222)
T1 construct: 10 nM full-length beta-Catenin (Uniprot ID P35222)
T1 sequence (P35222 1-781): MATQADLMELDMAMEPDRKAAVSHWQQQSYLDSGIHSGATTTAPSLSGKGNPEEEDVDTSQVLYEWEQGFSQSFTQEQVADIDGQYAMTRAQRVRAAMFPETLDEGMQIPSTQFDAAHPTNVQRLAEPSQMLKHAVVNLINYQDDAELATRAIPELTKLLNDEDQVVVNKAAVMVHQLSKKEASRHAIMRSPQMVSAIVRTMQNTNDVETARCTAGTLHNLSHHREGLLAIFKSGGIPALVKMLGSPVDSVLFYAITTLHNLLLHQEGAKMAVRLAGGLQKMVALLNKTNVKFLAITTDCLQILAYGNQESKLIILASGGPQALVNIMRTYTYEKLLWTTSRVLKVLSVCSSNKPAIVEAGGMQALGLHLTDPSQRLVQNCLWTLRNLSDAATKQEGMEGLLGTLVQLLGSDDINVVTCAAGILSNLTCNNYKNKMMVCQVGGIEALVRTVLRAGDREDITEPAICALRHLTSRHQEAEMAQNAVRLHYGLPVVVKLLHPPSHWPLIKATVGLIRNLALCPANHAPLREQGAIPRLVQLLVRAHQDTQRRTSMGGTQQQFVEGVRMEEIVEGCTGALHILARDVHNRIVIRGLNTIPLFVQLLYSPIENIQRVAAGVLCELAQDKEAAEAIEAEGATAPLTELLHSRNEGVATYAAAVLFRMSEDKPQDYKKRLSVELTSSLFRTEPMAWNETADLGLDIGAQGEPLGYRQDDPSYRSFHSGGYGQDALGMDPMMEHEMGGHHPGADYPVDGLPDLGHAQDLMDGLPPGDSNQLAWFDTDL
Assay: Fluorescence polarization IC50 (beta-catenin / 5FAM-TCF4 10-53 competition)
Assay type: binding
Settings: fluorescence polarization; read-out: beta-Catenin FP IC50

| SMILES | IC50 [nM] |
| --- | --- |
| CC(=O)N1CCC[C@]12CC=CCCCC1(CCCC=CCCCOC(=O)N3CC[C@@](C(=O)N[C@@H](Cc4ccccc4)C(=O)N[C@@H](Cc4csc5ccccc45)C(=O)N[C@@H](CCC(N)=O)C(N)=O)(C3)NC(=O)[C@H](CC(C)C)NC(=O)[C@H](Cc3ccccc3)NC(=O)[C@H](C)NC(=O)[C@H](CCCCNC(C)C)NC(=O)[C@H](Cc3c[nH]cn3)NC(=O)[C@H](CC(=O)O)NC1=O)NC(=O)[C@H](CC1CCCCC1)NC(=O)[C@H](CC(N)=O)NC2=O (stereo partly drawn) [I-2349, Ac-PL3-Asn-Cha-B5-Asp-His-iPrLys-Ala-Phe-Leu-PyrS2-Phe-BztA-Gln-NH2] | 1160 |
| CC(=O)N1CCC[C@]12CC=CCCCC1(CCCC=CCCCOC(=O)N3CC[C@@](C(=O)N[C@@H](Cc4ccccc4)C(=O)N[C@@H](Cc4csc5ccccc45)C(=O)N[C@@H](Cc4c[nH]cn4)C(N)=O)(C3)NC(=O)[C@H](CC(C)C)NC(=O)[C@H](Cc3ccccc3)NC(=O)[C@H](C)NC(=O)[C@H](CCCCNC(C)C)NC(=O)[C@H](CCC(N)=O)NC(=O)[C@H](CC(=O)O)NC1=O)NC(=O)[C@H](CC1CCCCC1)NC(=O)[C@H](CC(N)=O)NC2=O (stereo partly drawn) [I-2351, Ac-PL3-Asn-Cha-B5-Asp-Gln-iPrLys-Ala-Phe-Leu-PyrS2-Phe-BztA-His-NH2] | 187 |
| CC(=O)N1CCC[C@]12CC=CCCCC1(CCCC=CCCCOC(=O)N3CC[C@@](C(=O)N[C@@H](Cc4ccccc4)C(=O)N[C@@H](Cc4csc5ccccc45)C(=O)N[C@@H](C)C(N)=O)(C3)NC(=O)[C@H](CC(C)C)NC(=O)[C@H](Cc3ccccc3)NC(=O)[C@H](C)NC(=O)[C@H](CCCCNC(C)C)NC(=O)[C@H](CCC(N)=O)NC(=O)[C@H](CC(=O)O)NC1=O)NC(=O)[C@H](CC1CCCCC1)NC(=O)[C@H](CC(N)=O)NC2=O (stereo partly drawn) [I-2352, Ac-PL3-Asn-Cha-B5-Asp-Gln-iPrLys-Ala-Phe-Leu-PyrS2-Phe-BztA-Ala-NH2] | 211 |
| CC(=O)N1CCC[C@]12CC=CCCCC1(CCCC=CCCCOC(=O)N3CC[C@@](C(=O)N[C@@H](Cc4ccccc4)C(=O)N[C@@H](Cc4csc5ccccc45)C(=O)N[C@@H](CCC(N)=O)C(N)=O)(C3)NC(=O)[C@H](CC(C)C)NC(=O)[C@H](Cc3ccccc3)NC(=O)[C@H](C)NC(=O)[C@H](CCCCNC(C)C)NC(=O)[C@H](CCC(N)=O)NC(=O)[C@H](CC(=O)O)NC1=O)NC(=O)[C@H](CC1CCCCC1)NC(=O)[C@H](CCO)NC2=O (stereo partly drawn) [I-2353, Ac-PL3-Hse-Cha-B5-Asp-Gln-iPrLys-Ala-Phe-Leu-PyrS2-Phe-BztA-Gln-NH2] | 2760 |
| CC(=O)N1CCC[C@]12CC=CCCCC1(CCCC=CCCCOC(=O)N3CC[C@@](C(=O)N[C@@H](Cc4ccccc4)C(=O)N[C@@H](Cc4csc5ccccc45)C(=O)N[C@@H](CCC(N)=O)C(N)=O)(C3)NC(=O)[C@H](CC(C)C)NC(=O)[C@H](Cc3ccccc3)NC(=O)[C@H](C)NC(=O)[C@H](CCO)NC(=O)[C@H](CCC(N)=O)NC(=O)[C@H](CC(=O)O)NC1=O)NC(=O)[C@H](CC1CCCCC1)NC(=O)[C@H](CC(N)=O)NC2=O (stereo partly drawn) [I-2355, Ac-PL3-Asn-Cha-B5-Asp-Gln-Hse-Ala-Phe-Leu-PyrS2-Phe-BztA-Gln-NH2] | 417 |
| CCOC(=O)C[C@@H]1NC(=O)[C@]2(CC=CCCCC3(CCCC=CCCCOC(=O)N4CC[C@@](C(=O)N[C@@H](Cc5ccsc5)C(=O)N[C@@H](Cc5csc6ccccc56)C(=O)N[C@@H](CCC(N)=O)C(N)=O)(C4)NC(=O)[C@H](CC(C)C)NC(=O)[C@H](Cc4ccccc4)NC(=O)[C@H](C)NC(=O)[C@H](C)NC(=O)[C@H](CC(=O)O)NC(=O)[C@H](CC(=O)O)NC3=O)NC(=O)[C@H](CC(C)(C)C)NC1=O)CCCN2C(C)=O (stereo partly drawn) [I-2356, Ac-PL3-[Et]AspE-Npg-B5-Asp-Asp-Ala-Ala-Phe-Leu-PyrS2-3Thi-BztA-Gln-NH2] | 5270 |
| CCOC(=O)C[C@@H]1NC(=O)[C@H](CC(=O)O)NC(=O)C2(CCCC=CCCCOC(=O)N3CC[C@@](C(=O)N[C@@H](Cc4ccsc4)C(=O)N[C@@H](Cc4csc5ccccc45)C(=O)N[C@@H](CCC(N)=O)C(N)=O)(C3)NC(=O)[C@H](CC(C)C)NC(=O)[C@H](Cc3ccccc3)NC(=O)[C@H](C)NC(=O)[C@H](C)NC1=O)CCCC=CC[C@]1(CCCN1C(C)=O)C(=O)N[C@@H](CC(=O)O)C(=O)N[C@@H](CC(C)(C)C)C(=O)N2 (stereo partly drawn) [I-2358, Ac-PL3-Asp-Npg-B5-Asp-[Et]AspE-Ala-Ala-Phe-Leu-PyrS2-3Thi-BztA-Gln-NH2] | 463 |
| COC(=O)N1CCC[C@]12CC=CCCCC1(CCCC=CCCCOC(=O)N3CC[C@@](C(=O)N[C@@H](Cc4ccsc4)C(=O)N[C@@H](Cc4csc5ccccc45)C(=O)N[C@@H](Cc4c[nH]cn4)C(N)=O)(C3)NC(=O)[C@H](CCC(N)=O)NC(=O)[C@H](Cc3ccccc3)NC(=O)[C@H](C)NC(=O)[C@H](C)NC(=O)[C@H](CC(=O)O)NC(=O)[C@H](CC(=O)O)NC1=O)NC(=O)[C@H](CC(C)(C)C)NC(=O)[C@H](CC(=O)O)NC2=O (stereo partly drawn) [I-2362, CO2Me-PL3-Asp-Npg-B5-Asp-Asp-Ala-Ala-Phe-Gln-PyrS2-3Thi-BztA-His-NH2] | 66 |
| CCCCOC(=O)N1CCC[C@]12CC=CCCCC1(CCCC=CCCCOC(=O)N3CC[C@@](C(=O)N[C@@H](Cc4ccsc4)C(=O)N[C@@H](Cc4csc5ccccc45)C(=O)N[C@@H](Cc4c[nH]cn4)C(N)=O)(C3)NC(=O)[C@H](CCC(N)=O)NC(=O)[C@H](Cc3ccccc3)NC(=O)[C@H](C)NC(=O)[C@H](C)NC(=O)[C@H](CC(=O)O)NC(=O)[C@H](CC(=O)O)NC1=O)NC(=O)[C@H](CC(C)(C)C)NC(=O)[C@H](CC(=O)O)NC2=O (stereo partly drawn) [I-2363, CO2Bu-PL3-Asp-Npg-B5-Asp-Asp-Ala-Ala-Phe-Gln-PyrS2-3Thi-BztA-His-NH2] | 44 |
| CC(C)COC(=O)N1CCC[C@]12CC=CCCCC1(CCCC=CCCCOC(=O)N3CC[C@@](C(=O)N[C@@H](Cc4ccsc4)C(=O)N[C@@H](Cc4csc5ccccc45)C(=O)N[C@@H](Cc4c[nH]cn4)C(N)=O)(C3)NC(=O)[C@H](CCC(N)=O)NC(=O)[C@H](Cc3ccccc3)NC(=O)[C@H](C)NC(=O)[C@H](C)NC(=O)[C@H](CC(=O)O)NC(=O)[C@H](CC(=O)O)NC1=O)NC(=O)[C@H](CC(C)(C)C)NC(=O)[C@H](CC(=O)O)NC2=O (stereo partly drawn) [I-2364, CO2iBu-PL3-Asp-Npg-B5-Asp-Asp-Ala-Ala-Phe-Gln-PyrS2-3Thi-BztA-His-NH2] | 116 |
| CCOC(=O)CC[C@@H]1NC(=O)[C@H](CC(=O)O)NC(=O)C2(CCCC=CCCCOC(=O)N3CC[C@@](C(=O)N[C@@H](Cc4ccsc4)C(=O)N[C@@H](Cc4csc5ccccc45)C(=O)N[C@@H](CCC(N)=O)C(N)=O)(C3)NC(=O)[C@H](CC(C)C)NC(=O)[C@H](Cc3ccccc3)NC(=O)[C@H](C)NC(=O)[C@H](C)NC1=O)CCCC=CC[C@]1(CCCN1C(C)=O)C(=O)N[C@@H](CC(=O)O)C(=O)N[C@@H](CC(C)(C)C)C(=O)N2 (stereo partly drawn) [I-2365, Ac-PL3-Asp-Npg-B5-Asp-[Et]GluE-Ala-Ala-Phe-Leu-PyrS2-3Thi-BztA-Gln-NH2] | 3440 |
| COC(=O)CC[C@@H]1NC(=O)[C@H](CC(=O)O)NC(=O)C2(CCCC=CCCCOC(=O)N3CC[C@@](C(=O)N[C@@H](Cc4ccsc4)C(=O)N[C@@H](Cc4csc5ccccc45)C(=O)N[C@@H](CCC(N)=O)C(N)=O)(C3)NC(=O)[C@H](CC(C)C)NC(=O)[C@H](Cc3ccccc3)NC(=O)[C@H](C)NC(=O)[C@H](C)NC1=O)CCCC=CC[C@]1(CCCN1C(C)=O)C(=O)N[C@@H](CC(=O)O)C(=O)N[C@@H](CC(C)(C)C)C(=O)N2 (stereo partly drawn) [I-2366, Ac-PL3-Asp-Npg-B5-Asp-[Me]GluE-Ala-Ala-Phe-Leu-PyrS2-3Thi-BztA-Gln-NH2] | 1740 |
| CC(=O)N1CCC[C@]12CC=CCCCC1(CCCC=CCCCOC(=O)N3CC[C@@](C(=O)N[C@@H](Cc4ccccc4C(F)(F)F)C(=O)N[C@@H](Cc4csc5ccccc45)C(=O)N[C@@H](CO)C(N)=O)(C3)NC(=O)[C@H](CC(C)C)NC(=O)[C@H](Cc3ccccc3)NC(=O)[C@H](C)NC(=O)[C@H](C)NC(=O)[C@H](Cn3cc(CCC(=O)O)nn3)NC(=O)[C@H](CC(=O)O)NC1=O)NC(=O)[C@H](CC(C)(C)C)NC(=O)[C@H](CC(=O)O)NC2=O (stereo partly drawn) [I-2370, Ac-PL3-Asp-Npg-B5-Asp-[CH2CH2CO2H]TriAzDap-Ala-Ala-Phe-Leu-PyrS2-2F3MeF-BztA-Ser-NH2] | 12 |
| CC(C)C[C@@H]1NC(=O)[C@H](Cc2ccccc2)NC(=O)[C@H](C)NC(=O)[C@H](C)NC(=O)[C@H](CN(CC(=O)O)CC(F)(F)F)NC(=O)[C@H](CC(=O)O)NC(=O)C2(CCCCCCCCOC(=O)N3CC[C@@](C(=O)N[C@@H](Cc4ccsc4)C(=O)N[C@@H](Cc4csc5ccccc45)C(=O)N[C@@H](CCC(N)=O)C(N)=O)(C3)NC1=O)CCCCCCOc1cccc(c1)C(=O)N[C@@H](CC(=O)O)C(=O)N[C@@H](CC(C)(C)C)C(=O)N2 (stereo partly drawn) [I-2376, BzAm3OAllyl-Asp-Npg-B5-Asp-TfeGA-Ala-Ala-Phe-Leu-PyrS2-3Thi-BztA-Gln-NH2] | 352 |
